In US6800482B2, “Cultured cells of Australian laurel, Pittosporaceae and a method for culturing tissues by using said cultured cells” (Hiroshima University, priority 2001, dated 2004):

Tests used:
Assay type in all cases: cell-based
[1] = tested on: cut pieces from the stem of Australian laurel, Pittosporaceae; test: Tissue culture of cut pieces in culture medium containing thidiazuron and naphthaleneacetic acid (Example 1, Table 1); conditions: for Numbers of cut pieces leading to stem or leaf/10 cut pieces: NAA 0 μM, WP culture medium, 6 weeks
Protocol: (§1) A WP culture medium or a MS culture medium was used as a fundamental culture medium. As a carbon source was used 1% sucrose, and 0.3% Gellan-Gum (Trade name) was used as a gelling agent. An Australian laurel, Pittosporaceae seed was treated with 70% ethanol for 1 hour with 2.5% sodium hypochlorite for 1 hour, and sterilized by washing it with sterilized water. After water was fed to the seed 2 night or more at 4° C. in dark, it was planted in the culture medium. After germination, a seedling of four weeks age was used for a tissue culturing. Cut pieces, 1 mm thick, were prepared from a leave, a stem and a roof of the living matter, and planted and cultured in the same culture medium as mentioned above but containing naphthaleneacetic acid and thidiazuron (TDZ) as a hormon. […] About 2 months after the planting, a shoot was cut out from the polyblast, and indoleacetic acid was applied to a cut portion of the shoot. The shoot treated with indoleacetic acid was inserted into a solid culture medium or a mixed soil of perlite and vermiculite containing a culture medium. The shoot was cultured and rooted.
Cut pieces from the stem was cultured in the WP culture medium added with thidiazuron and naphthaleneacetic acid for 6 weeks, and observation results thereof are shown in Table 1.

[2] = tested on: leaf of the Australian laurel, Pittosporaceae; test: Redifferentiation from the leaf in WP culture medium (Example 3, Table 2); conditions: NAA 0 μM, 22 to 28° C., bright place
Protocol: as §1
Redifferentiation from the leaf and the stem of the Australian laurel, Pittosporaceae was examined. The WP culture medium was used as a culture medium. A culturing temperature was set in a range of 22 to 28° C. The Australian laurel, Pittosporaceae was cultured in a bright place. […]

[3] = tested on: Embryo (text: stem) of the Australian laurel, Pittosporaceae; test: Redifferentiation, column Embryo, in WP culture medium (Example 3, Table 2); conditions: for Redifferentiation Embryo: NAA 0 μM, WP culture medium, 22 to 28° C., bright place
Protocol: as §1
Redifferentiation from the leaf and the stem of the Australian laurel, Pittosporaceae was examined. The WP culture medium was used as a culture medium. A culturing temperature was set in a range of 22 to 28° C. The Australian laurel, Pittosporaceae was cultured in a bright place. The planting condition and the other culturing conditions were the same as those in Example 1.

SMILES: O=C(Nc1ccccc1)Nc1cnns1 [TDZ, thidiazuron]
- Numbers of cut pieces leading to stem or leaf/10 cut pieces ([1]; TDZ 0.1 μm): 0 /10 cut pieces
- Numbers of cut pieces leading to stem or leaf/10 cut pieces ([1]; TDZ 10 μm): 0 /10 cut pieces
- Redifferentiation ([1]; concentration of thidiazuron not less than 10 μM, culture medium containing naphthaleneacetic acid): redifferentiation was confirmed
- Redifferentiation Leaf ([2]; TDZ 10^4 nM): 0%
- Redifferentiation Leaf ([2]; TDZ 10^5 nM): 0%
- Redifferentiation Embryo ([3]; TDZ 10^4 nM): 5.0%
- Redifferentiation Embryo ([3]; TDZ 10^5 nM): 10.0%
- Redifferentiation percentages ([3]; cultures containing 10^4 to 10^5 nM thidiazuron): considerably high redifferentiation percentages
